Measurements from US20240376111A1, “COMPOSITIONS AND METHODS OF USING THE SAME FOR TREATMENT OF NEURODEGENERATIVE AND MITOCHONDRIAL DISEASE” (Mitokinin, Inc., priority 2021, published 2024).
Several values for one entry are separate records, joined by “and”; a condition that tells them apart may be missing. Equal values may be shown once. Read-outs that look alike come from different tables or passages of the source.

Experiments:
[1] = system: HeLa cells expressing mt-Keima and YFP-Parkin (HeLa MKYP); assay: Human mt-Keima mitophagy assay; assay type: cell-based; details: Homo sapiens
Experimental: Briefly, HeLa cells expressing mt-Keima and YFP-Parkin (HeLa MKYP) were plated at 10,000 cells/well in 96 well plates along with compounds at various concentrations. Following 16 hrs of incubation, cells were treated with 1 uM FCCP/oligomycin for 6 hours, then analyzed via FACS for the presence of mitochondria in lysosomes (as determined by an emissions spectrum shift from the pH-sensitive mt-Keima tag).

SKOV3 cells = assay: In vitro mitosafety (glucose/galactose) assay; details: highest mito-safe dose = highest concentration at which gal/glc>0.80 (IC20) in SKOV3 cells, divided by mt-Keima EC50
Experimental: Briefly, SKOV3 cells (ATCC HTB-77) were plated in DMEM (Corning 10-013-CV) medium containing 25 mM glucose or DMEM with no glucose (Gibco 11966-025) supplemented with 10 mM galactose at 9,000 cells/well in 96 well plates (Corning costar 3610). 24 hrs later, compounds, in DMSO, were added at various concentrations to a final 0.1% DMSO for all wells. […] After a 15 minute incubation cellular ATP levels were read out using a Promega GloMax® DiscoverMicroplate Reader.
The ratio of relative CellTiter-Glo values from cells grown in galactose to cells grown in glucose was determined (gal/glc ratio). The gal/glc ratio vs concentration is then graphed, and non-linear regression is used to find the highest concentration of MTK compound at which gal/glc>0.80 (the “highest mito-safe dose”, or IC20).

[2] = HeLa MKYP cells, 16 hrs with compound, then 1 uM FCCP/oligomycin for 6 hours, FACS, read-out: EC50 in HeLa mt-Keima Mitophagy Assay

SMILES | EC50 [1, 2] [nM] | EC50 ([1]; HeLa, refers to the table, read-out: EC50) [nM] | Mito-Safety Index (highest mito-safe dose/mt-Keima EC50) (SKOV3 cells)
FC(F)(F)c1cc2c(N[C@H]3CC4(CCCC4)Oc4ccccc43)ncnc2[nH]1 (single isomer, unassigned) [EP-0041356, N-spiro[chromane-2,1′-cyclopentane]-4-yl-6-(trifluoromethyl)-7H-pyrrolo[2,3-d]pyrimidin-4-amine] | 414 | – | 60.24
CC(C)(C#N)CO[C@@H]1COc2ccccc2[C@H]1Nc1ncnc2[nH]c(C3CC3)cc12 (stereo in doubt) [EP-0042976, 3-[(3S,4R)-4-[(6-cyclopropyl-7H-pyrrolo[2,3-d]pyrimidin-4-yl)amino]chroman-3-yl]oxy-2,2-dimethyl-propanenitrile] | 53 | – | 302.16
COCC[C@H]1COc2ccccc2[C@@H]1Nc1ncnc2[nH]c(C(F)(F)F)cc12 [EP-0041252] | 634 | – | 39.13
COCCO[C@H]1COc2cc(F)ccc2[C@@H]1Nc1ncnc2[nH]c(C3CC3)cc12 [EP-0042287, 6-cyclopropyl-N-[(3R,4S)-7-fluoro-3-(2-methoxyethoxy)chroman-4-yl]-7H-pyrrolo[2,3-d]pyrimidin-4-amine] | 180 | – | 38.56
COCCO[C@H]1COc2cc(F)ccc2[C@@H]1Nc1ncnc2[nH]c(C(F)(F)F)cc12 [EP-0042288, N-[(3R,4S)-7-fluoro-3-(2-methoxyethoxy)chroman-4-yl]-6-(trifluoromethyl)-7H-pyrrolo[2,3-d]pyrimidin-4-amine] | 397 | – | 40.57
COCCCO[C@H]1COc2ccccc2[C@@H]1Nc1ncnc2[nH]c(C3CC3)cc12 [EP-0042529, 4,6-cyclopropyl-N-[(3R,4S)-3-(3-methoxypropoxy)chroman-4-yl]-7H-pyrrolo[2,3-d]pyrimidin-4-amine] | 95 | – | 80.20
CC(C)(O)CO[C@H]1COc2ccccc2[C@@H]1Nc1ncnc2[nH]c(C3CC3)cc12 [EP-0042541, 1-[(3R,4S)-4-[(6-cyclopropyl-7H-pyrrolo[2,3-d]pyrimidin-4-yl)amino]chroman-3-yl]oxy-2-methyl-propan-2-ol] | 123 | – | 50.82
CC(C)(C#N)CO[C@H]1COc2ccccc2[C@@H]1Nc1ncnc2[nH]c(C(F)(F)F)cc12 [EP-0043230, 2,2-dimethyl-3-[(3R,4S)-4-[[6-(trifluoromethyl)-7H-pyrrolo[2,3-d]pyrimidin-4-yl]amino]chroman-3-yl]oxy-propanenitrile] | 417 | – | 43.73
FC(F)(F)c1cc2c(N[C@H]3c4ccccc4OC[C@@H]3OCC3CC3)ncnc2[nH]1 [EP-0043810, N-((3R,4S)-3-(cyclopropylmethoxy)chroman-4-yl)-6-(trifluoromethyl)-7H-pyrrolo[2,3-d]pyrimidin-4-amine] | 540 | – | 46.3
CCO[C@H]1COc2ccccc2[C@@H]1Nc1ncnc2[nH]c(C(F)(F)F)cc12 [EP-0043811, N-((3R,4S)-3-ethoxychroman-4-yl)-6-(trifluoromethyl)-7H-pyrrolo[2,3-d]pyrimidin-4-amine] | 930 | – | 26.9
CC(C)CO[C@H]1COc2ccccc2[C@@H]1Nc1ncnc2[nH]c(C(F)(F)F)cc12 [EP-0043813, N-((3R,4S)-3-isobutoxychroman-4-yl)-6-(trifluoromethyl)-7H-pyrrolo[2,3-d]pyrimidin-4-amine] | 170 | – | 147.1
Fc1ccc2c(c1)OC[C@H](OCC1CC1)[C@H]2Nc1ncnc2[nH]c(C(F)(F)F)cc12 [EP-0043819, N-((3R,4S)-3-(cyclopropylmethoxy)-7-fluorochroman-4-yl)-6-(trifluoromethyl)-7H-pyrrolo[2,3-d]pyrimidin-4-amine] | 680 | – | 36.7
FC(F)(F)c1cc2c(N[C@H]3c4ccccc4OC[C@@H]3OCC3COC3)ncnc2[nH]1 [EP-0043826, N-((3R,4S)-3-(oxetan-3-ylmethoxy)chroman-4-yl)-6-(trifluoromethyl)-7H-pyrrolo[2,3-d]pyrimidin-4-amine] | 280 | – | 60.4 and 60.3
CC(C)CO[C@H]1COc2ccccc2[C@@H]1Nc1nccc2[nH]c(C(F)(F)F)cc12 [EP-0043866] | 340 | – | 32.6

The next lines start with results.

EC50 [1, 2] [nM] | EC50 ([1]; HeLa, refers to the table, read-out: EC50) [nM] | SMILES | Mito-Safety Index (highest mito-safe dose/mt-Keima EC50) (SKOV3 cells)
78 | – | CC(C)(C#N)CC[C@@H]1COc2ccccc2[C@H]1Nc1ncnc2[nH]c(C3CC3)cc12 (relative stereo) [EP-0042291, 4-[trans-4-[(6-cyclopropyl-7H-pyrrolo[2,3-d]pyrimidin-4-yl)amino]chroman-3-yl]-2,2-dimethyl-butanenitrile] | 64.67
356 | – | COCC[C@@H]1COc2ccccc2[C@H]1Nc1ncnc2[nH]c(C(F)(F)F)cc12 (single isomer, unassigned) [EP-0041398, N-[trans-3-(2-methoxyethyl)chroman-4-yl]-6-(trifluoromethyl)-7H-pyrrolo[2,3-d]pyrimidin-4-amine] | 43.54
70 | – | COCCCC1COc2ccccc2C1Nc1ncnc2[nH]c(C(F)(F)F)cc12 (single isomer, unassigned) [EP-0041483, N-[3-(3-methoxypropyl)chroman-4-yl]-6-(trifluoromethyl)-7H-pyrrolo[2,3-d]pyrimidin-4-amine] | 48.05
90 | – | CC(C)(C#N)CCC1COc2ccccc2C1Nc1ncnc2[nH]c(C3CC3)cc12 (single isomer, unassigned) [EP-0042850, 4-[trans-4-[(6-cyclopropyl-7H-pyrrolo[2,3-d]pyrimidin-4-yl)amino]chroman-3-yl]-2,2-dimethyl-butanenitrile] | 70.99
100 | – | COC[C@]1(C)C[C@@H](Nc2ncnc3[nH]c(C(F)(F)F)cc23)c2ccccc2O1 (single isomer, unassigned) [EP-0043980] | 73.0
608 | – | FC(F)(F)c1cc2c(NC3CC4(CCCC4)Oc4ccccc43)ncnc2[nH]1 (stereo not drawn) [EP-0041220] | 41.11
30 | < 0.03 | COC(C)(C)CO[C@H]1COc2ccccc2[C@@H]1Nc1ncnc2[nH]c(C3CC3)cc12 [EP-0042538, 6-cyclopropyl-N-[(3R,4S)-3-(2-methoxy-2-methyl-propoxy)chroman-4-yl]-7H-pyrrolo[2,3-d]pyrimidin-4-amine] | 51.11
119 | – | COC(C)(C)CO[C@H]1COc2ccccc2[C@@H]1Nc1ncnc2[nH]c(C(F)(F)F)cc12 [EP-0042655, N-[(3R,4S)-3-(2-methoxy-2-methyl-propoxy)chroman-4-yl]-6-(trifluoromethyl)-7H-pyrrolo[2,3-d]pyrimidin-4-amine] | 38.50
468 | – | CC(C)(O)CO[C@H]1COc2ccccc2[C@@H]1Nc1ncnc2[nH]c(C(F)(F)F)cc12 [EP-0042979, 2-methyl-1-[(3R,4S)-4-[[6-(trifluoromethyl)-7H-pyrrolo[2,3-d]pyrimidin-4-yl]amino]chroman-3-yl]oxy-propan-2-ol] | 53.45
510 | – | CC(C)(F)CO[C@H]1COc2ccccc2[C@@H]1Nc1ncnc2[nH]c(C(F)(F)F)cc12 [EP-0043741, N-[(3R,4S)-3-(2-fluoro-2-methyl-propoxy)chroman-4-yl]-6-(trifluoromethyl)-7H-pyrrolo[2,3-d]pyrimidin-4-amine] | 49.0
620 | – | FC(F)(F)c1cc2c(N[C@H]3c4ccccc4OC[C@@H]3OCC3CCOC3)ncnc2[nH]1 (stereo partly drawn) [EP-0043842, N-((3R,4S)-3-((tetrahydrofuran-3-yl)methoxy)chroman-4-yl)-6-(trifluoromethyl)-7H-pyrrolo[2,3-d]pyrimidin-4-amine] | 38.4
